Results as given in PMC8260145 (Archives of biochemistry and biophysics, 2021).
“And” between values parts separate entries of the source, which are not always exact repeats. Equal values may be shown once. Read-outs that look alike come from different tables or passages of the source.

Assays:
[1] = target: T1, recombinant human CYP2C19 (Homo sapiens, UniProt P33261); test: Inhibition of C152 metabolism in SS
recombinant human CYP2B6 [2] = target: T2, recombinant human CYP2B6 (Homo sapiens, UniProt P20813); test: Inhibition of C152 metabolism in SS
T2 sequence (P20813 1-491): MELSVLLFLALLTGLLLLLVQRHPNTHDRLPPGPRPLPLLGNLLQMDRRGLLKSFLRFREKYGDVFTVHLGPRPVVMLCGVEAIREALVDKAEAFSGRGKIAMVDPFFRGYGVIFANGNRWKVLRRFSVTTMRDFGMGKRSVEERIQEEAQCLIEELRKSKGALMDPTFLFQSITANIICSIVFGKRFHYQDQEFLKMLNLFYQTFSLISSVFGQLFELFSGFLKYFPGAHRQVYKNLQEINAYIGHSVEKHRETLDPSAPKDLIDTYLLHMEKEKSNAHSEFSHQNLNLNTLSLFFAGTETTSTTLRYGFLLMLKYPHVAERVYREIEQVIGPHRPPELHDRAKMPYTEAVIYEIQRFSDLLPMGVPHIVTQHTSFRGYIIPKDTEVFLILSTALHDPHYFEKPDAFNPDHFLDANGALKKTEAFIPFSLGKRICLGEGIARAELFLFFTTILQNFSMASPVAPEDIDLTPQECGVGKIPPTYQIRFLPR

recombinant human CYP3A4 [3] = target: T3, recombinant human CYP3A4 (Homo sapiens, UniProt P08684); test: Inhibition of C152 metabolism in SS
human liver microsomes [4] = test: Inhibition of C152 metabolism in human liver microsomes; type: biochemical; conditions: 30 μM C152; for IC50: read-out: IC50 ((+)-N-3-Benzylnirvanol)
recombinant human CYP3A5 [5] = target: T4, recombinant human CYP3A5 (Homo sapiens, UniProt P20815); test: Inhibition of C152 metabolism in SS; conditions: SS(3A5), 30 μM C152
recombinant human CYP3A5 [6] = target: T4, recombinant human CYP3A5; test: C152 demethylation, continuous fluorometric assay, Supersomes SS; type: in vitro ADME; conditions: SS(3A5)
human liver microsomes [7] = type: in vitro ADME
recombinant human CYP2B6 [8] = target: T2, recombinant human CYP2B6; test: C152 demethylation, continuous fluorometric assay, Supersomes SS; type: in vitro ADME; conditions: SS(2B6)
[9] = target: T1, recombinant human CYP2C19; test: as above; type: in vitro ADME; conditions: SS(2C19)
CYP2A6 [10] = conditions: cited from earlier work
CYP2E1 = conditions: cited from earlier work
recombinant human CYP3A4 [11] = test: C152 demethylation, continuous fluorometric assay, Supersomes SS; type: in vitro ADME
CYP2C8 = conditions: cited from earlier work
recombinant human CYP3A4 [12] = target: T3, recombinant human CYP3A4
recombinant human CYP3A5 [13] = target: T4, recombinant human CYP3A5; test: biochemical
CYP2A6 [14] = test: 7-hydroxylation of coumarin in HLM; type: in vitro ADME, human; conditions: HLM(ODN), added CYP2A6 0
[15] = HLM(FVT) + added CYP3A5 43 pmol/mg protein (molar ratio 0.125)
[16] = HLM(ODN) + added CYP3A5 54 pmol/mg protein (molar ratio 0.125)
[17] = N-demethylation of C152, HLM(ODN), added CYP2A6 0
[18] = N-demethylation of C152, HLM(ODN), added CYP2A6 54 pmol/mg protein (ratio 0.125)
[19] = N-demethylation of C152, HLM(ODN), added CYP2A6 108 pmol/mg protein (ratio 0.25)
[20] = N-demethylation of C152, HLM(ODN), added CYP2A6 216 pmol/mg protein (ratio 0.5)
[21] = N-demethylation of C152, HLM(ODN), added CYP2A6 433 pmol/mg protein (ratio 1)

T1 sequence (P33261 whole entry): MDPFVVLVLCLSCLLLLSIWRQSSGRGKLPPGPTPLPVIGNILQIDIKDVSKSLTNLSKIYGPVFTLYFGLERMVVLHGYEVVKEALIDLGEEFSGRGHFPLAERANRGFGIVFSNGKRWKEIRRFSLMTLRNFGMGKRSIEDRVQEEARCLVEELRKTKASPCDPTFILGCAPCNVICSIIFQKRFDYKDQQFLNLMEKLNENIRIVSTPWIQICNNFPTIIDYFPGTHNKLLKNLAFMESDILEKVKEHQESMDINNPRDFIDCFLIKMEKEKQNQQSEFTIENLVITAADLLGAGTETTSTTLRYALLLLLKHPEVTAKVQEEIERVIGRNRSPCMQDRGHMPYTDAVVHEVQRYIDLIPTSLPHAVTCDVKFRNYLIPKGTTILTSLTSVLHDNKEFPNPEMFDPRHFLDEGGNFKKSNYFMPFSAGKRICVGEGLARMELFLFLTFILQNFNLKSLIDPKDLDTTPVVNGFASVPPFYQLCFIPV
T4 sequence (P20815 whole entry): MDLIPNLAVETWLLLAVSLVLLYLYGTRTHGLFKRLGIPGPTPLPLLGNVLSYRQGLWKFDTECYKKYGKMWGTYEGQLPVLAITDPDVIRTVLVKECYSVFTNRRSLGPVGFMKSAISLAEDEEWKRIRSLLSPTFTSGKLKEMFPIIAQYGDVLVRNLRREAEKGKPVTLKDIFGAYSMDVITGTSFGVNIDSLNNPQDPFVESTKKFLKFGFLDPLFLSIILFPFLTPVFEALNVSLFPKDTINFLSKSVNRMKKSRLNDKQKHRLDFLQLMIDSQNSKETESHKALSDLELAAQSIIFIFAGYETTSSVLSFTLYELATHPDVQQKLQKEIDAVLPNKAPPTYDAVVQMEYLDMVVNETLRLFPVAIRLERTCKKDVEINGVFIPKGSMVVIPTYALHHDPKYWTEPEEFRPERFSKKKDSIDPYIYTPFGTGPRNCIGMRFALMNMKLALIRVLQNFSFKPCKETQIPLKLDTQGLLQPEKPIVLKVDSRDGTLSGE
T3 sequence (P08684 2-503 limits assumed): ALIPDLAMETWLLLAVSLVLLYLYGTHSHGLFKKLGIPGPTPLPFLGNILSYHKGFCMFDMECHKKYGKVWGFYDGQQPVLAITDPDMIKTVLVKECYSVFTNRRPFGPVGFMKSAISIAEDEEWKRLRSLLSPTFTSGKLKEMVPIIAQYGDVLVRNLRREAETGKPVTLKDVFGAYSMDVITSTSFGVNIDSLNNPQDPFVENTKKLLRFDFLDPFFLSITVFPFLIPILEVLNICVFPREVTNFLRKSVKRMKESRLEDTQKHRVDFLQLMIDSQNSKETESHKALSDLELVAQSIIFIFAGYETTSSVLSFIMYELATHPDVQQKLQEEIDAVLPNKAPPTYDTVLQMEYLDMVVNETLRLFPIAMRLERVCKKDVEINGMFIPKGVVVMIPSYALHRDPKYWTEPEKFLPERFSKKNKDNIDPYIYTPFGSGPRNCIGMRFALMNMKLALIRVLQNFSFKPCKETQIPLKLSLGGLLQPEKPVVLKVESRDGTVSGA

## Clc1ccc(Cc2ccncc2)cc1
[1]
  IC50: 0.215 ± 0.118 µM
Recombinant human CYP2B6 [2]
  IC50: 0.035 ± 0.01 µM
Recombinant human CYP2B6 [2]; SS(2B6), 30 μM C152
  Maximal inhibition: 95 ± 3%
Recombinant human CYP3A4 [3]
  IC50: 0.225 ± 0.073 µM
Human liver microsomes [4]; HLM(FVT)+CYP3A5 (12.5% of total P450)
  Maximal inhibition: 89 ± 8%
Human liver microsomes [4]; HLM(FVT)
  Maximal inhibition: 79 ± 17%
Human liver microsomes [4]; HLM(IHG)
  Maximal inhibition: 90 ± 3%
Human liver microsomes [4]; HLM(LBA)
  Maximal inhibition: 88 ± 12%
Human liver microsomes [4]; HLM(LFJ)
  Maximal inhibition: 84 ± 23%
Human liver microsomes [4]; HLM(NQO)
  Maximal inhibition: 92 ± 4%
Human liver microsomes [4]; HLM(ODN)+CYP3A5 (12.5% of total P450)
  Maximal inhibition: 70 ± 3%
Human liver microsomes [4]; HLM(ODN)
  Maximal inhibition: 91 ± 2%

## CC[C@@]1(c2ccccc2)NC(=O)N(Cc2ccccc2)C1=O [(+)-N-3-Benzylnirvanol, (S)-(+)-N-3-benzylnirvanol]
Recombinant human CYP2B6 [2]; SS(2B6), 30 μM C152
  Maximal inhibition ((+)-N-3-Benzylnirvanol): 81 ± 7%
Recombinant human CYP2B6 [2]; read-out: IC50 ((+)-N-3-Benzylnirvanol), SS(2B6), 30 μM C152
  IC50: 8.5 ± 2.3 µM
Recombinant human CYP3A4 [3]; SS(3A4), 30 μM C152
  Maximal inhibition ((+)-N-3-Benzylnirvanol): 59 ± 10%
Recombinant human CYP3A4 [3]; read-out: IC50 ((+)-N-3-Benzylnirvanol), SS(3A4), 30 μM C152
  IC50: 27 ± 3 µM
Recombinant human CYP3A5 [5]
  Maximal inhibition ((+)-N-3-Benzylnirvanol): 78 ± 21%
Recombinant human CYP3A5 [5]; read-out: IC50 ((+)-N-3-Benzylnirvanol)
  IC50: 6.6 ± 1.5 µM
Human liver microsomes [4]; HLM(FVT)
  Maximal inhibition ((+)-N-3-Benzylnirvanol): 62 ± 9%
  IC50: 11 ± 4 µM
Human liver microsomes [4]; HLM(IHG)
  Maximal inhibition ((+)-N-3-Benzylnirvanol): 47 ± 12%
  IC50: 16 ± 2 µM
Human liver microsomes [4]; HLM(LBA)+CYP2E1
  Maximal inhibition ((+)-N-3-Benzylnirvanol): 78 ± 36%
  IC50: 26 ± 10 µM
Human liver microsomes [4]; HLM(LBA)
  Maximal inhibition ((+)-N-3-Benzylnirvanol): 57 ± 10%
  IC50: 0.51 ± 0.03 µM
Human liver microsomes [4]; HLM(LFJ)+CYP2E1
  Maximal inhibition ((+)-N-3-Benzylnirvanol): 95 ± 6%
  IC50: 12 ± 2 µM
Human liver microsomes [4]; HLM(LFJ)
  Maximal inhibition ((+)-N-3-Benzylnirvanol): 79 ± 22%
  IC50: 0.49 ± 0.12 µM
Human liver microsomes [4]; HLM(NQO)
  Maximal inhibition ((+)-N-3-Benzylnirvanol): 78 ± 43%
  IC50: 0.46 ± 0.39 µM
Human liver microsomes [4]; HLM(ODN)
  Maximal inhibition ((+)-N-3-Benzylnirvanol): 65 ± 4%
  IC50: 19 ± 15 µM

## CN(C)c1ccc2c(C(F)(F)F)cc(=O)oc2c1 [C152, 7-Dimethylamino-4-trifluromethylcoumarin]
Recombinant human CYP3A5 [6]
  S50: 16.4 ± 4.8 µM
  Vmax: 8.8 ± 1.0 min⁻¹
Human liver microsomes [7]; [15]
  N (the Hill coefficient): 1.41 ± 0.66
  S50: 1.73 ± 0.66 µM
  Vmax: 20.9 ± 5.7 min⁻¹
Human liver microsomes [7]; HLM(FVT)+CYP2E1
  N (the Hill coefficient): 1.28 ± 0.33
  S50: 18.9 ± 1.2 µM
  Vmax: 20.6 ± 1.3 min⁻¹
Human liver microsomes [7]; HLM(FVT), intact
  N (the Hill coefficient): 1.49 ± 0.67
  S50: 14.2 ± 1.0 µM
  Vmax: 33.6 ± 2.1 min⁻¹
Human liver microsomes [7]; HLM(IHG), intact
  N (the Hill coefficient): 1.03 ± 0.09
  S50: 4.7 ± 2.7 µM
  Vmax: 46.3 ± 3.8 min⁻¹
Human liver microsomes [7]; HLM(LBA)+CYP2E1
  N (the Hill coefficient): 1.14 ± 0.26
  S50: 8.8 ± 2.1 µM
  Vmax: 62.6 ± 5.6 min⁻¹
Human liver microsomes [7]; HLM(LBA), intact
  N (the Hill coefficient): 1.76 ± 0.33
  S50: 4.4 ± 1.5 µM
  Vmax: 75.0 ± 10.6 min⁻¹
Human liver microsomes [7]; HLM(LFJ)+CYP2E1
  N (the Hill coefficient): 1.37 ± 0.44
  S50: 11.6 ± 2.8 µM
  Vmax: 44.7 ± 5.9 min⁻¹
Human liver microsomes [7]; HLM(LFJ), intact
  N (the Hill coefficient): 1.94 ± 0.51
  S50: 4.8 ± 1.2 µM
  Vmax: 47.8 ± 3.2 min⁻¹
Human liver microsomes [7]; HLM(NQO), intact
  N (the Hill coefficient): 1.03 ± 0.05
  S50: 3.7 ± 1.9 µM
  Vmax: 29.9 ± 3.6 min⁻¹
Human liver microsomes [7]; [16]
  N (the Hill coefficient): 1.73 ± 0.69
  S50: 1.83 ± 0.96 µM
  Vmax: 22.4 ± 1.3 min⁻¹
Human liver microsomes [7]; HLM(ODN), intact
  N (the Hill coefficient): 1.40 ± 0.17
  S50: 3.3 ± 0.5 µM and 3.29 ± 0.53 µM
  Vmax: 37.1 ± 10.2 min⁻¹
Human liver microsomes [7]; HLM(S9)+CYP2E1
  N (the Hill coefficient): 1.16 ± 0.37
  S50: 3.2 ± 1.5 µM
  Vmax: 6.6 ± 0.8 min⁻¹
Human liver microsomes [7]; HLM(S9), intact
  N (the Hill coefficient): 1.27 ± 0.25
  S50: 5.5 ± 2.9 µM
  Vmax: 17.8 ± 4.6 min⁻¹
Human liver microsomes [7]; [17]
  Km: 3.29 ± 0.53 µM
  N: 1.40 ± 0.17
  Vmax: 37.1 ± 10.2 min⁻¹
Human liver microsomes [7]; [18]
  Km: 11.4 ± 0.2 µM
  N: 1.30 ± 0.21
  Vmax: 29.1 ± 1.3 min⁻¹
Human liver microsomes [7]; [19]
  Km: 4.15 ± 1.33 µM
  N: 1.04 ± 0.05
  Vmax: 60.1 ± 10.9 min⁻¹
Human liver microsomes [7]; [20]
  Km: 6.88 ± 2.47 µM
  N: 1.14 ± 0.23
  Vmax: 56.2 ± 4.9 min⁻¹
Human liver microsomes [7]; [21]
  Km: 4.57 ± 2.57 µM
  N: 1.38 ± 0.24
  Vmax: 75.3 ± 25.2 min⁻¹
Recombinant human CYP2B6 [8]
  S50: 1.8 ± 0.2 µM
  Vmax: 44.2 ± 14.8 min⁻¹
[9]
  S50: 5.7 ± 1.1 µM
  Vmax: 8.3 ± 3.4 min⁻¹
CYP2A6 [10]
  ability of CYP2A6 to catalyze demethylation of C152: lacks any ability to catalyze the demethylation of C152
CYP2E1
  activity of CYP2E1 with C152: do not exhibit any activity
Recombinant human CYP3A4 [11]; SS(3A4)
  N (the Hill coefficient): 1.61 ± 0.24
  S50: 4.5 ± 1.2 µM
  Vmax: 23.8 ± 4.2 min⁻¹
Recombinant human CYP3A4 [11]; SS(3A4)+CYP2E1
  N (the Hill coefficient): 1.28 ± 0.31
  S50: 10.2 ± 2.8 µM
  Vmax: 34.0 ± 4.6 min⁻¹
CYP2C8
  S50: 12 ± 6 µM
  turnover: 2.6 ± 0.8 min⁻¹

## Clc1ccccc1C(c1ccccc1)(c1ccccc1)n1ccnc1 [Clotrimazole]
[1]; read-out: IC50 (Clotrimazole), SS(2C19), 30 μM C152
  IC50: 0.202 ± 0.113 µM
Recombinant human CYP3A4 [12]
  IC50 with CYP3A4 lower than the values observed with CYP2B6 and CYP2C19: 1–2 orders of magnitude
Recombinant human CYP3A5 [13]
  IC50: 0.164 ± 0.039 µM

## O=c1ccc2ccccc2o1 [Coumarin, coumarin]
CYP2A6 [14]
  N: 1.66 ± 0.41
  Vmax: 5.6 ± 0.5 min⁻¹
